From PubChem BioAssay AID1259407 (Chemical Carcinogenesis Research Information System (CCRIS), 2018)
Active and inactive are the calls of the source. How the calls were made is not given here.

System: CCRIS mutagenicity, Ames/micronucleus/aberration tests
Assay: CCRIS mutagenicity studies
[1] = Test System: AMES SALMONELLA TYPHIMURIUM, Strain/Indicator: TA98, Metabolic Activation: NONE, Method: STANDARD PLATE
[2] = Test System: AMES SALMONELLA TYPHIMURIUM, Strain/Indicator: TA98, Metabolic Activation: RAT LIVER S-9, AROCLOR 1254, Method: STANDARD PLATE
[3] = Test System: AMES SALMONELLA TYPHIMURIUM, Strain/Indicator: TA100, Metabolic Activation: NONE, Method: STANDARD PLATE
[4] = Test System: AMES SALMONELLA TYPHIMURIUM, Strain/Indicator: TA100, Metabolic Activation: RAT LIVER S-9, AROCLOR 1254, Method: STANDARD PLATE
[5] = Test System: AMES SALMONELLA TYPHIMURIUM, Strain/Indicator: TA1535, Metabolic Activation: NONE, Method: PREINCUBATION
[6] = Test System: AMES SALMONELLA TYPHIMURIUM, Strain/Indicator: TA1537, Metabolic Activation: NONE, Method: PREINCUBATION
[7] = Test System: AMES SALMONELLA TYPHIMURIUM, Strain/Indicator: TA98, Metabolic Activation: NONE, Method: PREINCUBATION
[8] = Test System: AMES SALMONELLA TYPHIMURIUM, Strain/Indicator: TA100, Metabolic Activation: NONE, Method: PREINCUBATION

Measured: mutagenic call

C[Si](C)(C)O[Si](C)(C)C
inactive: [1] inactive; negative | [2] inactive; negative | [3] inactive; negative | [4] inactive; negative | Test System: AMES SALMONELLA TYPHIMURIUM, Strain/Indicator: TA1535, Metabolic Activation: NONE, Method: STANDARD PLATE inactive; negative | Test System: AMES SALMONELLA TYPHIMURIUM, Strain/Indicator: TA1535, Metabolic Activation: RAT LIVER S-9, AROCLOR 1254, Method: STANDARD PLATE inactive; negative | Test System: AMES SALMONELLA TYPHIMURIUM, Strain/Indicator: TA1537, Metabolic Activation: NONE, Method: STANDARD PLATE inactive; negative | Test System: AMES SALMONELLA TYPHIMURIUM, Strain/Indicator: TA1537, Metabolic Activation: RAT LIVER S-9, AROCLOR 1254, Method: STANDARD PLATE inactive; negative | Test System: AMES SALMONELLA TYPHIMURIUM, Strain/Indicator: TA1538, Metabolic Activation: NONE, Method: STANDARD PLATE inactive; negative | Test System: AMES SALMONELLA TYPHIMURIUM, Strain/Indicator: TA1538, Metabolic Activation: RAT LIVER S-9, AROCLOR 1254, Method: STANDARD PLATE inactive; negative | Test System: E. COLI, Strain/Indicator: P3078 POLA, Metabolic Activation: NONE, Method: SPOT TEST inactive; negative | Test System: E. COLI, Strain/Indicator: P3078 POLA, Metabolic Activation: RAT LIVER S-9, AROCLOR 1254, Method: SPOT TEST inactive; negative | Test System: E. COLI, Strain/Indicator: W3110, Metabolic Activation: NONE, Method: SPOT TEST inactive; negative | Test System: E. COLI, Strain/Indicator: W3110, Metabolic Activation: RAT LIVER S-9, AROCLOR 1254, Method: SPOT TEST inactive; negative | Test System: MOUSE LYMPHOMA, Strain/Indicator: L5178Y (TK+/TK-), Metabolic Activation: NONE, Method: SUSPENSION/PLATE inactive; negative | Test System: MOUSE LYMPHOMA, Strain/Indicator: L5178Y (TK+/TK-), Metabolic Activation: RAT, LIVER, S-9, Method: SUSPENSION/PLATE inactive; negative

C[n+]1c2ccccc2cc2ccccc21
inactive: [5] inactive; negative | Test System: AMES SALMONELLA TYPHIMURIUM, Strain/Indicator: TA1535, Metabolic Activation: RAT, LIVER, S-9, TETRACHLOROBIPHENYL, Method: PREINCUBATION inactive; negative | [6] inactive; negative | Test System: AMES SALMONELLA TYPHIMURIUM, Strain/Indicator: TA1538, Metabolic Activation: NONE, Method: PREINCUBATION inactive; negative | Test System: AMES SALMONELLA TYPHIMURIUM, Strain/Indicator: TA1978, Metabolic Activation: RAT, LIVER, S-9, TETRACHLOROBIPHENYL, Method: PREINCUBATION inactive; negative
active: Test System: AMES SALMONELLA TYPHIMURIUM, Strain/Indicator: TA1537, Metabolic Activation: RAT, LIVER, S-9, TETRACHLOROBIPHENYL, Method: PREINCUBATION active; positive | Test System: AMES SALMONELLA TYPHIMURIUM, Strain/Indicator: TA1538, Metabolic Activation: RAT, LIVER, S-9, TETRACHLOROBIPHENYL, Method: PREINCUBATION active; positive

OC/C(Br)=C(\Br)CO
inactive: [7] inactive; negative | [8] inactive; negative | [5] inactive; negative | [6] inactive; negative | Test System: AMES SALMONELLA TYPHIMURIUM, Strain/Indicator: TA1537, Metabolic Activation: RAT, LIVER, S-9, AROCLOR 1254 (10%), Method: PREINCUBATION inactive; negative
active: Test System: AMES SALMONELLA TYPHIMURIUM, Strain/Indicator: TA98, Metabolic Activation: HAMSTER, LIVER, S-9, AROCLOR 1254 (10%), Method: PREINCUBATION active; positive | Test System: AMES SALMONELLA TYPHIMURIUM, Strain/Indicator: TA98, Metabolic Activation: RAT, LIVER, S-9, AROCLOR 1254, Method: PREINCUBATION active; positive | Test System: AMES SALMONELLA TYPHIMURIUM, Strain/Indicator: TA100, Metabolic Activation: HAMSTER, LIVER, S-9, AROCLOR 1254 (10%), Method: PREINCUBATION active; positive | Test System: AMES SALMONELLA TYPHIMURIUM, Strain/Indicator: TA100, Metabolic Activation: RAT, LIVER, S-9, AROCLOR 1254 (10%), Method: PREINCUBATION active; positive | Test System: AMES SALMONELLA TYPHIMURIUM, Strain/Indicator: TA1535, Metabolic Activation: HAMSTER, LIVER, S-9, AROCLOR 1254 (10%), Method: PREINCUBATION active; positive | Test System: AMES SALMONELLA TYPHIMURIUM, Strain/Indicator: TA1535, Metabolic Activation: RAT, LIVER, S-9, AROCLOR 1254 (10%), Method: PREINCUBATION active; positive | Test System: AMES SALMONELLA TYPHIMURIUM, Strain/Indicator: TA1537, Metabolic Activation: HAMSTER, LIVER, S-9, AROCLOR 1254 (10%), Method: PREINCUBATION active; positive

N=c1ccn2c(n1)O[C@H]1[C@H](O)[C@@H](CO)O[C@H]12
inactive: Test System: AMES SALMONELLA TYPHIMURIUM, Strain/Indicator: TA98, Metabolic Activation: S-9, Method: STANDARD PLATE inactive; negative | Test System: AMES SALMONELLA TYPHIMURIUM, Strain/Indicator: TA100, Metabolic Activation: S-9, Method: STANDARD PLATE inactive; negative | Test System: AMES SALMONELLA TYPHIMURIUM, Strain/Indicator: TA1537, Metabolic Activation: S-9, Method: STANDARD PLATE inactive; negative | Test System: E. COLI, Strain/Indicator: WP2 (HCR), Metabolic Activation: S-9, Method: STANDARD PLATE inactive; negative

Fc1ccc(CCl)cc1
inactive: [3] inactive; negative

O=C1OC(O)C(C(Br)Br)=C1Br (centres undefined)
active: [1] active; positive | [3] active; positive
inactive: [2] inactive; negative | [4] inactive; negative

COC(=O)C(=Cc1ccc(Br)o1)[N+](=O)[O-]
inactive: [7] inactive; negative

COC(=O)c1oc(N(OC(C)=O)C(C)=O)c(-c2ccccc2)c1-c1ccccc1
inactive: [7] inactive; negative | Test System: AMES SALMONELLA TYPHIMURIUM, Strain/Indicator: TA98, Metabolic Activation: RAT, LIVER, S-9, AROCLOR, Method: PREINCUBATION inactive; negative | [8] inactive; negative | Test System: AMES SALMONELLA TYPHIMURIUM, Strain/Indicator: TA100, Metabolic Activation: RAT, LIVER, S-9, AROCLOR, Method: PREINCUBATION inactive; negative
